The text below walks through data of article PMC9875641, “Ophthalmic Solution of Smart Supramolecular Peptides to Capture Semaphorin 4D against Diabetic Retinopathy” (Advanced Science, 2022).

Series [1] relates to endothelial cells. The series is described as follows: Wound-healing and transwell migration of endothelial cells induced by recombinant Sema4D. The format is cell-based, mouse. The conditions noted are these: wound-healing and transwell assays, n = 3; effect equal to anti-Sema4D antibody.
The target of series [2] is T1, Cy5-labeled sSema4D (Homo sapiens, UniProt Q92854).
T1 construct: purchased Novoprotein Ltd. (Suzhou, China)
T1 sequence (Q92854 22-734 limits assumed): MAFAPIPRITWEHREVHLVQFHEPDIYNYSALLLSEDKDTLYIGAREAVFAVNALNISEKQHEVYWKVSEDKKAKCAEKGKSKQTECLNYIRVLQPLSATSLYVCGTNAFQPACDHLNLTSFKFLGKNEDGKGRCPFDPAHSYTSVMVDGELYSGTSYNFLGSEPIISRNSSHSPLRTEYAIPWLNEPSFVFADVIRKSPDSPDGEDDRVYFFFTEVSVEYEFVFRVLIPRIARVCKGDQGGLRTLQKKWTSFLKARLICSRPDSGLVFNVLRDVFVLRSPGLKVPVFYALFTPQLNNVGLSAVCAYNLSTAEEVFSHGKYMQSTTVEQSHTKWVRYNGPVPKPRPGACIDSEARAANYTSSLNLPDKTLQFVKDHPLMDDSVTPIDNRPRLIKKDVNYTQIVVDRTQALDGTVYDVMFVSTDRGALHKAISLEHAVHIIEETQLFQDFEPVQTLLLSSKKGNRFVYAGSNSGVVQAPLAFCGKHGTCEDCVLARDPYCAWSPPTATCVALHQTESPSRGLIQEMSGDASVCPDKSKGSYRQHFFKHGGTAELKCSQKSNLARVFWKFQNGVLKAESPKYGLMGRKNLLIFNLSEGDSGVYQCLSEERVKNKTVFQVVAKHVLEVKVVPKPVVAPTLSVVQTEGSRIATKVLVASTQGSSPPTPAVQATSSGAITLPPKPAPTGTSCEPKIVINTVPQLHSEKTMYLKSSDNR
The series is described as follows: CLSM recognition and capture of sSema4D. In kind it is binding. To be noted: FITC-labeled SSP with Cy5-labeled sSema4D, 6 h. As to the method:
FITC‐labeled SSP‐1 or SSP‐2 and Cy5‐labeled sSema4D proteins were synthesized. Cy5‐labeled sSema4D were incubated with FITC‐labeled SSP‐1 and SSP‐2 nanostructure solutions for 6 h, respectively. […]
a resolution of 1.0 nm and a scanning speed of 300 nm/min. For each measurement, three spectra were collected and averaged.
CLSM observation. Sema4D protein was purchased from Novoprotein Ltd. (Suzhou, China). Sema4D protein cultured with SSP-1 or SSP-2 nanomaterials (30 μM) for 4 h were imaged using a Zeiss LSM710 confocal laser scanning microscope
(Ultra-VIEWVox, PerkinElmer). The parameters of confocal laser scanning microscope was a 40× objective lens.
Patient. Vitreous humor samples of DR patients were obtained immediately before intravitreal injection of anti-VEGF agents. Control vitreous humor samples were collected from nondiabetic patients receiving surgery for idiopathic macular hole. All of the human vitreous humor samples were collected based on informed consent. The vitreous samples were centrifuged at 4°C, and the supernatants were aliquoted into several sterile tubes and stored at -80°C. The procedure was approved by an ethics committee of Tongji Medical College, Huazhong University of Science and Technology, and strictly followed the Declaration of Helsinki guidelines.
Cell culture. […]

The nature of series [3]: Zeta potential of SSPs. In kind it is physicochemical. The conditions noted are these: self-assembled SSP under aqueous condition. The text has this: Artificial tears containing SSPs were developed and dropped into eyes. SSPs accumulated in the vitreous cavity. To examine the behavior of SSPs monomer in artificial tear, it was fast injected into water. Under the aqueous condition, the SSPs self‐assembled into spherical NPs or nanorods, a function of its to C16 and FFVLK domains with a hydrophobic unit. The morphology of SSP‐1 was NPs with the average size of 44.8 ± 2.9 nm. […] Besides, the zeta potential of SSP‐1 and SSP‐2 was positive charged with the value of 45.7 and 40.2 mV, respectively (Figure 3C). The positive charged SSPs penetrate blood‐eye barrier well.
In addition, KLVFF sequence, a sheet structure with strong hydrogen‐bonding was introduced into SSPs, we could distinctly observe the secondary structure of SSPs by circular dichroism (CD) spectroscopy. […] The percentage of β‐sheet after incubation with sSema4D in SSP‐1 and SSP‐2 were 85.6% and 42.3%, respectively, indicative of a highly organized packing of NFs in SSP‐1. […] The high percentage of β‐sheet structure in NFs stabilized the formation of nanostructure networks, due to its strong hydrogen‐bonding KLVFF sequence. Moreover, we carried out the cytotoxicity of SSP‐1 and SSP‐2 by using a standard CCK‐8 (Figure 3D). […] Finally, we investigated the recognition of sSema4D and SSP‐1 and SSP‐2 by confocal laser scanning microscope (CLSM).

Series [4] has as its system pericytes. The experiment in a line: Transwell migration of pericytes induced by recombinant Sema4D. The format is cell-based, mouse. The conditions noted are these: transwell assay, n = 3.

As for “C16‐FFVLK‐KNKAAKG [SSP-2, smart supramolecular peptide, C16‐FFVLK‐KNKAAKG, self-assembling, captures sSema4D]”, the “recombinant Sema4D protein-induced endothelial cell migration” value in series [1] is listed as “inhibited”. Further, in series [2], the “recognition and trapping of sSema4D (merge images)” value was “could completely cover the sSema4D”. For the same substance, the zeta potential in series [3] was determined as 40.2 mV. Further, in series [4], the “recombinant Sema4D protein-induced pericyte migration” value is listed as “reduced”.
As for “C16‐FFVLK‐KQKRPRH [SSP-1, smart supramolecular peptide, C16‐FFVLK‐KQKRPRH, self-assembling, captures sSema4D]”, the “recombinant Sema4D protein-induced endothelial cell migration” value in series [1] is “inhibited”. Also, the “recognition and trapping of sSema4D (merge images)” value in series [2] is listed as “could completely cover the sSema4D”. The substance also yielded a zeta potential in series [3] of 45.7 mV. For the same substance, the “recombinant Sema4D protein-induced pericyte migration” value in series [4] is “reduced”.
